Assay results taken from patent US10413505B1, “Pharmaceutical compositions and methods of using the same” (priority 2017, dated 2019).

Assays:
[1] = Example 2 urinary pharmacokinetics, normal renal function vs severe renal impairment; conditions: single intranasal 160 mg cocaine HCl; for 0 to 32 hour urinary recovery (geometric mean) / 0 to 32 hour urinary recovery (mean) / 0 to 32 hour urinary recovery (median): metabolites as cocaine equivalents
Procedure: For the urine analysis of cocaine, BE, and EME, individual urinary recoveries for each analyte were determined over each collection interval as the product of the urine concentration times the urine volume. The total recoveries were determined as the sum of the recoveries over all the intervals. Total urinary recoveries were also expressed as the percentage of the administered dose, after correction for the molecular weight of each analyte. The renal clearances of cocaine, BE, and EME were determined as the urinary recovery (in μg) divided by the plasma AUC over the same time interval (the longest period for which both plasma and urine measurements were available).
Urine was collected prior to dosing and from 0-2, 2-4, 4-8, 8-12, 12-24, and 24-32 hours after the beginning of dose application. […] Testing methods used were consistent with those used by inVentiv Health Clinical Lab, Inc., Miami, Fla., U.S.A. Urinary pharmacokinetic parameters included total urinary recovery (μg), urinary recovery as a percentage of dose, and CLr.

[2] = Example 1 single-dose plasma pharmacokinetics after intranasal administration; assay type: in vivo, human; conditions: healthy subjects; single intranasal 160 mg cocaine HCl; plasma, >12 h after dosing
Procedure: Single-dose plasma and urinary pharmacokinetics of the pharmaceutical composition following intranasal administration was characterized in this study. This was a single-dose study in 30 healthy volunteers. The objective of the study was to examine the systemic pharmacokinetics of the pharmaceutical composition following acute, topical intranasal administration.
(§1) A single dose of a pharmaceutical composition was administered to both nostrils using cottonoid pledgets. […] Each pledget absorbed approximately 1 mL of pharmaceutical composition (i.e., 40 mg cocaine hydrochloride). Two soaked pledgets were placed into each nasal cavity of the subject and against the anterior septum for 20 minutes; thus, a total dose of 160 mg of cocaine hydrochloride was administered.
Blood samples were collected pre-dose (30 minutes before pledget insertion), and 7.5, 15, 20, 30, 45, 60, 75, 90, and 105 minutes and 2, 3, 4, 6, 8, 10, and 12 hours from the start of application of the pharmaceutical composition.
The effect of gender on Cmax, Tmax, AUClast, AUCinf, and t1/2 was determined. The effects of age, body weight, and BMI on AUClast were determined.

[3] = Example 1 urinary pharmacokinetics after intranasal administration; assay type: in vivo, human; conditions: healthy subjects; single intranasal 160 mg cocaine HCl; urine 0-12 h; metabolites as cocaine equivalents
Procedure: as §1
Urine samples were collected pre-dose and at the following intervals from the start of intranasal application of the pharmaceutical composition: 0-2 hours, 2-4 hours, 4-8 hours, and 8-12 hours. […] A 25-μL aliquot of each urine sample was processed by liquid-liquid extraction.
Urinary pharmacokinetic parameters were analyzed using noncompartmental methods.

[4] = severe renal impairment, listed as Ecgonine Methyl Ester

COC(=O)[C@@H]1[C@H]2CC[C@@H](C[C@@H]1O)N2C [EME, ecgonine methyl ester]
0-32 h Urinary Recovery (geometric mean) ([1]; normal renal function): 894.9 µg
0-32 h Urinary Recovery (mean) ([1]; normal renal function): 1095 µg
0-32 h Urinary Recovery (median) ([1]; normal renal function): 892.8 µg
Renal Clearance, CLr (geometric mean) ([1]; normal renal function): 18.1 L/h
Renal Clearance, CLr (mean) ([1]; normal renal function): 19.1 L/h
Renal Clearance, CLr (median) ([1]; normal renal function): 21.4 L/h
Renal Clearance, geometric mean ([1]; normal renal function): 302.2 mL/min
Renal Clearance, mean ([1]; normal renal function): 317.8 mL/min
Renal Clearance, median ([1]; normal renal function): 356.1 mL/min
0 to 32 hour urinary recovery (geometric mean) ([1]; normal renal function): 0.954 % of administered dose
0 to 32 hour urinary recovery (mean) ([1]; normal renal function): 1.17 % of administered dose
0 to 32 hour urinary recovery (median) ([1]; normal renal function): 0.952 % of administered dose
0 to 32 hour urinary recovery (mean) ([1]; normal renal function, listed as Ecgonine Methyl Ester): 1.167 % of administered dose
0-32 h Urinary Recovery (geometric mean) ([1]; severe renal impairment): 1177.8 µg
0-32 h Urinary Recovery (mean) ([1]; severe renal impairment): 1425 µg
0-32 h Urinary Recovery (median) ([1]; severe renal impairment): 1104 µg
Renal Clearance, CLr (geometric mean) ([1]; severe renal impairment): 4.23 L/h
Renal Clearance, CLr (mean) ([1]; severe renal impairment): 4.95 L/h
Renal Clearance, CLr (median) ([1]; severe renal impairment): 4.05 L/h
Renal Clearance, geometric mean ([1]; severe renal impairment): 70.6 mL/min
Renal Clearance, mean ([1]; severe renal impairment): 82.5 mL/min
Renal Clearance, median ([1]; severe renal impairment): 67.6 mL/min
0 to 32 hour urinary recovery (geometric mean) ([1]; severe renal impairment): 1.26 % of administered dose
0 to 32 hour urinary recovery (mean) ([1]; severe renal impairment): 1.52 % of administered dose
0 to 32 hour urinary recovery (median) ([1]; severe renal impairment): 1.177 % of administered dose
0 to 32 hour urinary recovery (geometric mean) [1, 4]: 1.255 % of administered dose
0 to 32 hour urinary recovery (mean) [1, 4]: 1.519 % of administered dose
plasma level not exceeded (metabolite not detectable in plasma) [2]: ≤ 50 ng/mL
Total Urinary Recovery (Geometric mean) [3]: 252 µg
Total Urinary Recovery (Mean) [3]: 275 µg
Total Urinary Recovery (Median) [3]: 276 µg
Urinary Recovery (Geometric mean) [3]: 0.240 % dose
Urinary Recovery (Mean) [3]: 0.262 % dose
Urinary Recovery (Median) [3]: 0.263 % dose
